Measured values published in US8529874B2, “Peptide imaging agents” (GE Healthcare AS, priority 2007, dated 2013).
Bridge positions count the residues as written; N and C are the ends.

Columns and labels:
[1] = system: HCT-15 tumours; experiment: In vivo optical imaging of HCT-15 tumour slice against normal colon; set-up: species or system BALB c/A nude (Bom) mice
Text: 54 Female BALB c/A nude (Bom) mice were used in the study. The use of the animals was approved by the local ethics committee. BALB c/A nude is an inbred immunocompromised mouse strain with a high take rate for human tumours as compared to other nude mice strains. The mice were 4 weeks old upon arrival and with a body weight of approx. 20 grams at the start of the study. The animals were housed in individually ventilated cages (IVC, Scanbur BK) with HEPA filtered air. The animals had ad libitum access to “Rat and Mouse nr. 3 Breeding” diet (Scanbur BK) and tap water acidified by addition of HCl to a molar concentration of 1 mM (pH 3.0).
The colon cancer cell HCT-15 is derived from human colon carcinomas and is reported to express c-Met according to Zeng et al [Clin. Exp. Metastasis, 21, 409-417. (2004)]. The cell line was proven to be tumorigenic when inoculated subcutaneously into nude mice [Flatmark et al, Eur. J. Cancer 40, 1593-1598 (2004)].
HCT-15 cells were grown and prepared for subcutaneous inoculation in RPMI (Sigma Cat# R0883) with 10% serum and penicillin/streptomycin. Stocks were made at passage number four (P4) and frozen down for storage in liquid nitrogen at 3×10^7 cells/vial in the culture media containing 5% DMSO. On the day of the transplantation, the cells were thawed quickly in a 37° C. water bath (approx. 2 min), washed and resuspended in PBS/2% serum (centrifugation at 1200 rpm for 10 min). Thorough mixing of cells in the vials was ensured every time cells were aspirated into the dosing syringe. Volumes of 0.1 ml of cell suspension were injected s.c. at the shoulder and at the back using a fine bore needle (25 G) while the animals were under light gas anaesthesia. The animals were then returned to their cages and the tumours were allowed to grow for 13-17 days. […]
Imaging was performed through a clinical laparoscope adapted to use a light source to excite the reporter and a filtering system to extract the fluorescence component. […] The images were visually scored using the standard scoring system employed for receiver operating characteristic analysis.

[2] = target: T1, mouse c-Met/Fc chimera (Mus musculus, UniProt P16056); experiment: In vitro fluorescence polarisation assay, binding to mouse c-Met; settings: dye-labelled peptide 20 nM, c-Met/Fc 0-150 nM (tested range)
T1 construct: purchased R&D Systems
T1 sequence (P16056 with tags, fused parts or gaps limits assumed): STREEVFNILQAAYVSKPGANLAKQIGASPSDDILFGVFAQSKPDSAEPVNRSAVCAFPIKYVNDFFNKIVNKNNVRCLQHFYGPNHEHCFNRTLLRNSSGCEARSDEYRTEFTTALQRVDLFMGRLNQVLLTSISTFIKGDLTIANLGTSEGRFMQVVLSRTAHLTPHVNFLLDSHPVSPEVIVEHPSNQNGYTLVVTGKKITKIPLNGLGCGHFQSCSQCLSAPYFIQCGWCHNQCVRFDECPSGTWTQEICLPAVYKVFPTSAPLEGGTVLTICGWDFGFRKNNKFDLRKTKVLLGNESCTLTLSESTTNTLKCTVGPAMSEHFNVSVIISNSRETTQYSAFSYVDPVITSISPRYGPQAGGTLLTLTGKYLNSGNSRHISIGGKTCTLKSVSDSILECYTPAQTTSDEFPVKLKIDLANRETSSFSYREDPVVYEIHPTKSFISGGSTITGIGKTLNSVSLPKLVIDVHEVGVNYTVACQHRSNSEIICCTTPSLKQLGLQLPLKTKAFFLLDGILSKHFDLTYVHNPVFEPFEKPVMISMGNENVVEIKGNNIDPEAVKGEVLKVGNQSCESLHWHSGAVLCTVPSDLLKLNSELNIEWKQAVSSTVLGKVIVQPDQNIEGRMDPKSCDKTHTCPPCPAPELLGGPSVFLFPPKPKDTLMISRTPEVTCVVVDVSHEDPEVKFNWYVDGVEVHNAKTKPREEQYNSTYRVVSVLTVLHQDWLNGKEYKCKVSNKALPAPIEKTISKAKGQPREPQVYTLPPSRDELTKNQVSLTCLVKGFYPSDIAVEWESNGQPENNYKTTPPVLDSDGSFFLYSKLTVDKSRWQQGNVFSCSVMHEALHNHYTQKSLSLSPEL
Protocol: The principle of the fluorescence polarisation method can briefly be described as follows:
Monochromatic light passes through a horizontal polarizing filter and excites fluorescent molecules in the sample. Only those molecules that oriented properly in the vertically polarized plane adsorb light, become excited, and subsequently emit light. The emitted light is measured in both horizontal and vertical planes. The anistropy value (A), is the ratio between the light intensities following the equation
The fluorescence anistropy measurements were performed in 384-well microplates in a volume of 10 μL in binding buffer (PBS, 0.01% Tween-20, pH 7.5) using a Tecan Safire fluorescence polarisation plate reader (Tecan, US) at ex646/em678 nm. The concentration of dye-labelled peptide was held constant (20 nM) and the concentrations of the human or mouse c-Met/Fc chimera (R&D Systems) or Semaphorin 6A (R&D Systems) were varied from 0-150 nM. Binding mixtures were equilibrated in the microplate for 10 min at 30° C. The observed change in anistropy was fit to the equation
[formula] where robs is the observed anistropy, rfree is the anistropy of the free peptide, rbound is the anistropy of the bound peptide, KD is the dissociation constant, cMet is the total c-Met concentration, and P is the total dye-labelled peptide concentration. […]

## Ac-TGECTCPYWEFRPCECGSYSGAGGGK(ε-Cy5**)-NH2 (Ac-TGECTCPYWEFRPCECGSYSGAGGGK-NH2; disulfide 6-14; disulfide 4-16 (inferred); not fully specified (residue 26); printed as Ac-TGECTCPYWEFRPCECGSYSGAGGGK(ε-Cy5**)-NH2) [Compound 7, negative control; scrambled control peptide with the same dye as Compound 5]
[1]; 1 nmol per animal i.v., HCT-15 tumour slice vs normal colon
  visual identification of tumour against background: nothing was discernible against background
[1]; 1 nmol per animal i.v., HCT-15 tumour slice vs normal colon, ex vivo, 635 nm excitation
  tumour to normal ratio: 1.04
[1]; animal model of cancer, Example 7
  tumour: background ratios (summary in words): did not discriminate between tumour and background

## Ac-Ala-Gly-Ser-Cys-Tyr-Cys-Ser-Gly-Pro-Pro-Arg-Phe-Glu-Cys-Trp-Cys-Tyr-Glu-Thr-Glu-Gly-Thr-Gly-Gly-Gly-Lys(Cy5)-NH2 (Ac-AGSCYCSGPPRFECWCYETEGTGGGK(Cy5)-NH2; also: two disulfides, pairing not given here) [Compound 3]
[2]
  binding to mouse c-Met (in words): no binding
